# Assay results reported in patent publication US20240216401A1, “COMBINATION THERAPY BY USING AKR1C3-ACTIVATED COMPOUND WITH IMMUNE CHECKPOINT INHIBITOR” (OBI Pharma, Inc., priority 2021, published 2024).
# Values joined by “and” are separate entries in the source; they are usually repeats but may differ in a detail not shown here. Equal entries are not always repeated.
# Experiments:
# [1] = system: PD-L1^+ cells in tumor-infiltrating lymphocytes; experiment: Example 2: flow cytometry, percentage of PD-L1^+ cells in TILs; type: in vivo, Mus musculus
# Procedure: (§1) Mice were sacrificed by CO2 euthanasia at the end of the study duration, and the connective tissue around tumor was resected. The tumor samples were then weighed and cut equally into three sections if the tumor weight over 400 mg. The tumor tissue was prepared for the isolation of tumor-infiltrating lymphocytes (TILs). The rest of one section was fixed in 10% formaldehyde and embedded in paraffin; the other was stored at a temperature below −70° C.
# (§2) The tumor samples were dissected into smaller fragments using scalpels and then digested with a cocktail of collagenase, DNase I, and Hyaluronidase (Collagenase #C5138, DNase I #D5025, Hyaluronidase #H6254, SigmaAldrich) for at least 2 hours.
# (§3) Cells were stained with the fluorescently conjugated surface antibodies and incubated for 30 minutes at 4° C., and then resuspended in staining buffer for flow cytometric analysis. Flow cytometry was done using a Navios EX Flow Cytometer (Beckman Coulter). Data were analyzed using the Kaluza Analysis Software (Beckman Coulter).
# [2] = system: Calreticulin cells in tumor-infiltrating lymphocytes; experiment: Example 2: flow cytometry, percentage of Calreticulin cells in TILs; type: in vivo, Mus musculus; settings: individual mice and group Mean; for CD45^− live cells (CD45^−ViaKrome405^weak) Cell count / Calreticulin cells (CD45^− Calreticulin^+) Cell count / Total CD45^− cells (CD45^−) Cell count: Cell count = Total cell × Total % × 10; for CD45^− live cells (CD45^−ViaKrome405^weak) CTL Gated % / CD45^− live cells (CD45^−ViaKrome405^weak) Total % / Calreticulin cells (CD45^− Calreticulin^+) CTL Gated % / Calreticulin cells (CD45^− Calreticulin^+) Total % / Total CD45^− cells (CD45^−) CD45^+ Gated % / Total CD45^− cells (CD45^−) Total %: TILs from tumor
# Procedure: as §1, §2, §3
# [3] = G2, OBI-3424 0.3 mg/kg, group Mean
# [4] = G2, OBI-3424 0.3 mg/kg, individual animal, 0.3 mg/kg
# [5] = G3, OBI-3424 1 mg/kg, group Mean
# [6] = G3, OBI-3424 1 mg/kg, individual animal, 1 mg/kg
# [7] = G2: OBI-3424 0.3 mg/kg, 0.3 mg/kg
# [8] = G2: OBI-3424 0.3 mg/kg, 0.3 mg/kg, group mean
# [9] = G3: OBI-3424 1 mg/kg, 1 mg/kg, group mean
structure (smiles),measurement,setting,value
"C[C@H](OP(=O)(N1CC1)N1CC1)c1ccc([N+](=O)[O-])c(Oc2cccc(C(=O)N(C)C)c2)c1 [OBI-3424, (S)-1-(3-(3-N,N-dimethylaminocarbonyl)phenoxyl-4-mtrophenyl)-1-ethyl-N,N′-bis(ethylene)phosphoramidate]","PD-L1^+ cells (CD45^− PD-L1^+), CD45^− Gated %",[1]; [3],9.15%
same,"PD-L1^+ cells (CD45^− PD-L1^+), Cell count",[1]; [3],4.91 ×10^5
same,"PD-L1^+ cells (CD45^− PD-L1^+), Total %",[1]; [3],1.95%
same,"Total PD-L1^+ cells (PD-L1^+), Cell count",[1]; [3],9.60 ×10^5
same,"Total PD-L1^+ cells (PD-L1^+), Total %",[1]; [3],3.79%
same,"Total PD-L1^+ cells (PD-L1^+), Total cells Gated %",[1]; [3],5.18%
same,"PD-L1^+ cells (CD45^− PD-L1^+), CD45^− Gated %",[1]; [4],15.51% and 5.86% and 9.64% and 4.13% and 12.53% and 7.23%
same,"PD-L1^+ cells (CD45^− PD-L1^+), Cell count",[1]; [4],9.41 ×10^5 and 2.07 ×10^5 and 10.69 ×10^5 and 0.07 ×10^5 and 6.63 ×10^5 and 0.61 ×10^5
same,"PD-L1^+ cells (CD45^− PD-L1^+), Total %",[1]; [4],4.84% and 1.01% and 1.98% and 0.35% and 2.69% and 0.84%
same,"Total PD-L1^+ cells (PD-L1^+), Cell count",[1]; [4],14.43 ×10^5 and 6.01 ×10^5 and 24.62 ×10^5 and 0.29 ×10^5 and 10.67 ×10^5 and 1.56 ×10^5
same,"Total PD-L1^+ cells (PD-L1^+), Total %",[1]; [4],7.42% and 2.94% and 4.56% and 1.34% and 4.33% and 2.15%
same,"Total PD-L1^+ cells (PD-L1^+), Total cells Gated %",[1]; [4],11.84% and 3.97% and 5.50% and 1.44% and 5.16% and 3.16%
same,"PD-L1^+ cells (CD45^− PD-L1^+), CD45^− Gated %",[1]; [5],4.40%
same,"PD-L1^+ cells (CD45^− PD-L1^+), Cell count",[1]; [5],0.38 ×10^5
same,"PD-L1^+ cells (CD45^− PD-L1^+), Total %",[1]; [5],0.48%
same,"Total PD-L1^+ cells (PD-L1^+), Cell count",[1]; [5],1.61 ×10^5
same,"Total PD-L1^+ cells (PD-L1^+), Total %",[1]; [5],2.08%
same,"Total PD-L1^+ cells (PD-L1^+), Total cells Gated %",[1]; [5],2.24%
same,"PD-L1^+ cells (CD45^− PD-L1^+), CD45^− Gated %",[1]; [6],4.18% and 2.31% and 4.37% and 7.16% and 4.63%
same,"PD-L1^+ cells (CD45^− PD-L1^+), Cell count",[1]; [6],0.08 ×10^5 and 0.30 ×10^5 and 0.41 ×10^5 and 0.51 ×10^5 and 0.49 ×10^5 and 0.47 ×10^5
same,"PD-L1^+ cells (CD45^− PD-L1^+), Total %",[1]; [6],0.27% and 0.24% and 0.58% (2×) and 0.52% and 0.66%
same,"Total PD-L1^+ cells (PD-L1^+), Cell count",[1]; [6],0.46 ×10^5 and 1.50 ×10^5 and 2.03 ×10^5 and 1.69 ×10^5 and 1.67 ×10^5 and 2.32 ×10^5
same,"Total PD-L1^+ cells (PD-L1^+), Total %",[1]; [6],1.58% and 1.19% and 2.88% and 1.71% and 2.24% and 2.86%
same,"Total PD-L1^+ cells (PD-L1^+), Total cells Gated %",[1]; [6],1.66% and 1.26% and 3.32% and 1.80% and 2.39% and 3.03%
same,CD45^− live cells (CD45^−ViaKrome405^weak) Cell count,[2]; [7],39.37 ×10^5 and 25.28 ×10^5 and 83.81 ×10^5 and 1.35 ×10^5 and 29.90 ×10^5 and 5.87 ×10^5
same,Calreticulin cells (CD45^− Calreticulin^+) Cell count,[2]; [7],5.54 ×10^5 and 1.27 ×10^5 and 10.26 ×10^5 and 0.06 ×10^5 and 1.11 ×10^5 and 0.19 ×10^5
same,Total CD45^− cells (CD45^−) Cell count,[2]; [7],70.58 ×10^5 and 45.89 ×10^5 and 130.41 ×10^5 and 2.18 ×10^5 and 65.25 ×10^5 and 10.35 ×10^5
same,CD45^− live cells (CD45^−ViaKrome405^weak) Cell count,[2]; [8],30.93 ×10^5
same,Calreticulin cells (CD45^− Calreticulin^+) Cell count,[2]; [8],3.07 ×10^5
same,Total CD45^− cells (CD45^−) Cell count,[2]; [8],54.11 ×10^5
same,CD45^− live cells (CD45^−ViaKrome405^weak) CTL Gated %,[2]; [7],55.78% and 55.07% and 64.29% and 61.79% and 45.83% and 56.69%
same,CD45^− live cells (CD45^−ViaKrome405^weak) Total %,[2]; [7],20.24% and 12.36% and 15.52% and 6.30% and 12.13% and 8.10%
same,Calreticulin cells (CD45^− Calreticulin^+) CTL Gated %,[2]; [7],14.09% and 5.02% and 12.21% and 4.51% and 3.69% and 3.21%
same,Calreticulin cells (CD45^− Calreticulin^+) Total %,[2]; [7],2.85% and 0.62% and 1.90% and 0.28% and 0.45% and 0.26%
same,Total CD45^− cells (CD45^−) CD45^+ Gated %,[2]; [7],50.59% and 29.66% and 28.87% and 12.41% and 31.01% and 21.40%
same,Total CD45^− cells (CD45^−) Total %,[2]; [7],36.29% and 22.44% and 24.15% and 10.20% and 26.47% and 14.28%
same,CD45^− live cells (CD45^−ViaKrome405^weak) CTL Gated %,[2]; [8],56.58%
same,CD45^− live cells (CD45^−ViaKrome405^weak) Total %,[2]; [8],12.44%
same,Calreticulin cells (CD45^− Calreticulin^+) CTL Gated %,[2]; [8],7.12%
same,Calreticulin cells (CD45^− Calreticulin^+) Total %,[2]; [8],1.06%
same,Total CD45^− cells (CD45^−) CD45^+ Gated %,[2]; [8],28.99%
same,Total CD45^− cells (CD45^−) Total %,[2]; [8],22.31%
same,CD45^− live cells (CD45^−ViaKrome405^weak) Cell count,"[2]; G3: OBI-3424 1 mg/kg, 1 mg/kg",1.72 ×10^5 and 9.67 ×10^5 and 7.88 ×10^5 and 9.07 ×10^5 and 5.22 ×10^5 and 6.72 ×10^5
same,Calreticulin cells (CD45^− Calreticulin^+) Cell count,"[2]; G3: OBI-3424 1 mg/kg, 1 mg/kg",0.05 ×10^5 and 0.25 ×10^5 (2×) and 0.88 ×10^5 and 0.19 ×10^5 and 0.12 ×10^5
same,Total CD45^− cells (CD45^−) Cell count,"[2]; G3: OBI-3424 1 mg/kg, 1 mg/kg",2.45 ×10^5 and 15.22 ×10^5 and 11.73 ×10^5 and 11.65 ×10^5 and 8.38 ×10^5 and 8.94 ×10^5
same,CD45^− live cells (CD45^−ViaKrome405^weak) Cell count,[2]; [9],6.71 ×10^5
same,Calreticulin cells (CD45^− Calreticulin^+) Cell count,[2]; [9],0.29 ×10^5
same,Total CD45^− cells (CD45^−) Cell count,[2]; [9],9.73 ×10^5
same,CD45^− live cells (CD45^−ViaKrome405^weak) CTL Gated %,"[2]; G3: OBI-3424 1 mg/kg, 1 mg/kg",70.28% and 63.52% and 67.13% and 77.84% and 62.30% and 75.12%
same,CD45^− live cells (CD45^−ViaKrome405^weak) Total %,"[2]; G3: OBI-3424 1 mg/kg, 1 mg/kg",5.94% and 7.66% and 11.16% and 9.18% and 7.02% and 8.30%
same,Calreticulin cells (CD45^− Calreticulin^+) CTL Gated %,"[2]; G3: OBI-3424 1 mg/kg, 1 mg/kg",2.90% and 2.61% and 11.18% and 2.75% and 3.65% and 1.83%
same,Calreticulin cells (CD45^− Calreticulin^+) Total %,"[2]; G3: OBI-3424 1 mg/kg, 1 mg/kg",0.17% and 0.20% and 1.25% and 0.25% and 0.26% and 0.15%
same,Total CD45^− cells (CD45^−) CD45^+ Gated %,"[2]; G3: OBI-3424 1 mg/kg, 1 mg/kg",9.67% and 13.99% and 19.95% and 13.15% and 12.84% and 12.22%
same,Total CD45^− cells (CD45^−) Total %,"[2]; G3: OBI-3424 1 mg/kg, 1 mg/kg",8.45% and 12.06% and 16.62% and 11.79% and 11.27% and 11.04%
same,CD45^− live cells (CD45^−ViaKrome405^weak) CTL Gated %,[2]; [9],69.37%
same,CD45^− live cells (CD45^−ViaKrome405^weak) Total %,[2]; [9],8.21%
